These results are taken from ChEMBL document CHEMBL1156896, “Synthesis and structure-activity relationships of a series of 3-aryl-4-isoxazolecarboxamides as a new class of TGR5 agonists” (Bioorg Med Chem Lett, 2010).

A short description of data set [1]: Permeability in artificial membrane assay. The data set is classed as ADME, cell membranes. The following applies: PAMPA; read-out: permeability.
The nature of another data set: in vitro. The following applies: dog, MDCK.

Consider `CCN(C(=O)c1c(-c2ccccc2Cl)noc1C)c1cccc(Cl)c1`, for which the results for the Papp (in data set [1]; in “in vitro”) were 31 ×10⁻⁶ cm/s and 44.8 ×10⁻⁶ cm/s, respectively.
